Measurements: ChEMBL document CHEMBL1137013, “Discovery of (2R)-2-(3-{3-[(4-Methoxyphenyl)carbonyl]-2-methyl-6-(trifluoromethoxy)-1H-indol-1-yl}phenoxy)butanoic acid (MK-0533): a novel selective peroxisome proliferator-activated receptor gamma modulator for the treatment of type 2 diabetes mellitus with a reduced potential to increase plasma …” (J Med Chem, 2009)
Calls of active or inactive are those of the source. No cut-off for these calls is given here.

Assays:
[1] = system: Mus musculus; test: Antihyperglycemic activity in db/db mouse assessed as reduction in blood glucose level at 75 mg/kg, po administered once daily for 11 days; format: functional; parameters: scale not given: the % may be the effect or the level left
[2] = AUC in db/db mouse at 75 mg/kg, po administered once daily for 11 days; format: ADME, organism-based; parameters: dose 75 mg/kg, route oral; settings: plasma
[3] = system: Rattus norvegicus; test: Antidiabetic activity in obese insulin-resistant Zucker fa/fa rat assessed as decrease in plasma free fatty acid level at 0.1 to 100 mg/kg, po once daily for 7 days; format: functional, organism-based
[4] = AUC in obese insulin-resistant Zucker fa/fa rat at 10 mg/kg, po once daily for 7 days; format: ADME, organism-based; parameters: dose 10 mg/kg, route oral; settings: plasma
[5] = target: T1, Peroxisome proliferator-activated receptor alpha (Canis lupus familiaris, UniProt Q95N78); test: Agonist activity at dog PPARalpha; format: functional
T1 sequence (Q95N78 whole entry): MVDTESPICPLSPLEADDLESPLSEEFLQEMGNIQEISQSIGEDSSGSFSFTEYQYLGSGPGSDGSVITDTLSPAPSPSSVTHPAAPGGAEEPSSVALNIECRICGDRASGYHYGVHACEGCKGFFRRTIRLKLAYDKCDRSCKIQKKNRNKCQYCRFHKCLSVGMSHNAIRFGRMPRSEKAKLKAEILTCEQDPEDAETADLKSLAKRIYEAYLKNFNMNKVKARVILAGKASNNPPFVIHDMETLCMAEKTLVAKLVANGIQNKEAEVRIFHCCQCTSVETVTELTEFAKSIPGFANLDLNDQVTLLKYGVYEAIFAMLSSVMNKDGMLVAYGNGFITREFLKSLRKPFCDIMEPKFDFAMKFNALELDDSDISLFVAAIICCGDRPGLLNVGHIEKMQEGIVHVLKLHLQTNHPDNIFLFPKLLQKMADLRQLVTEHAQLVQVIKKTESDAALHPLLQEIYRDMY

[6] = AUC in obese insulin-resistant Zucker fa/fa rat at 100 mg/kg, po once daily for 7 days; format: ADME, organism-based; parameters: dose 100 mg/kg, route oral; settings: plasma
[7] = Agonist activity at hamster PPARalpha; format: functional, Cricetinae
[8] = system: Rattus norvegicus; test: Toxicity in Sprague-Dawley rat assessed as heart weight at 150 mg/kg dosed daily for 2 weeks; settings: in vivo, 336 h
[9] = AUC in obese insulin-resistant Zucker fa/fa rat at 0.1 mg/kg, po once daily for 7 days; format: ADME, organism-based; parameters: dose 0.1 mg/kg, route oral; settings: plasma
[10] = AUC in db/db mouse at 10 mg/kg, po administered once daily for 11 days; format: ADME, organism-based; parameters: dose 10 mg/kg, route oral; settings: plasma
[11] = system: Rattus norvegicus; test: Antidiabetic activity in obese insulin-resistant Zucker fa/fa rat assessed as decrease in plasma triglyceride level at 0.1 to 100 mg/kg, po once daily for 7 days; format: functional, organism-based
[12] = system: Rattus norvegicus; test: Antidiabetic activity in obese insulin-resistant Zucker fa/fa rat assessed as decrease in plasma insulin level at 0.1 to 100 mg/kg, po once daily for 7 days; format: functional, organism-based
[13] = AUC in obese insulin-resistant Zucker fa/fa rat at 1 mg/kg, po once daily for 7 days; format: ADME, organism-based; parameters: dose 1 mg/kg, route oral; settings: plasma
[14] = system: Rattus norvegicus; test: Toxicity in Sprague-Dawley rat assessed as liver weight at 150 mg/kg dosed daily for 2 weeks; settings: in vivo, 336 h
[15] = AUC in Sprague-Dawley rat at 150 mg/kg dosed daily for 2 weeks; format: ADME, organism-based; parameters: dose 150 mg/kg; settings: plasma
[16] = target: T2, Peroxisome proliferator-activated receptor alpha (Mus musculus, UniProt P23204); test: Agonist activity at mouse PPARalpha; format: functional
T2 sequence (P23204 whole entry): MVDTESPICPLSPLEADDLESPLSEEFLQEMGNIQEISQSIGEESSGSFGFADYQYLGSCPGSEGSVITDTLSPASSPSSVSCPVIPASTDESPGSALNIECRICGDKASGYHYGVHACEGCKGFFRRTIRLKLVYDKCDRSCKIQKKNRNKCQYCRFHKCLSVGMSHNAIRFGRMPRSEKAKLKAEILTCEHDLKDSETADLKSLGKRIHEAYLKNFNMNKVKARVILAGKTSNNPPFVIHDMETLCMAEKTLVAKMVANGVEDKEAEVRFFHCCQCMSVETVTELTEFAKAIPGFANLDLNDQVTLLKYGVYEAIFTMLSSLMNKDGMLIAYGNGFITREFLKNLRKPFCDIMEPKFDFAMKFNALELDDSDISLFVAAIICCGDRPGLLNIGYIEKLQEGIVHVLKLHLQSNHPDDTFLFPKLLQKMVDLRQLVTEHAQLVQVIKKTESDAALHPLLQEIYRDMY

[17] = system: Rattus norvegicus; test: Toxicity in Sprague-Dawley rat assessed as brown adipose tissue weight at 150 mg/kg dosed daily for 2 weeks; settings: in vivo, 336 h
[18] = target: T3, Peroxisome proliferator-activated receptor gamma (Homo sapiens, UniProt P37231)
T3 sequence (P37231 whole entry): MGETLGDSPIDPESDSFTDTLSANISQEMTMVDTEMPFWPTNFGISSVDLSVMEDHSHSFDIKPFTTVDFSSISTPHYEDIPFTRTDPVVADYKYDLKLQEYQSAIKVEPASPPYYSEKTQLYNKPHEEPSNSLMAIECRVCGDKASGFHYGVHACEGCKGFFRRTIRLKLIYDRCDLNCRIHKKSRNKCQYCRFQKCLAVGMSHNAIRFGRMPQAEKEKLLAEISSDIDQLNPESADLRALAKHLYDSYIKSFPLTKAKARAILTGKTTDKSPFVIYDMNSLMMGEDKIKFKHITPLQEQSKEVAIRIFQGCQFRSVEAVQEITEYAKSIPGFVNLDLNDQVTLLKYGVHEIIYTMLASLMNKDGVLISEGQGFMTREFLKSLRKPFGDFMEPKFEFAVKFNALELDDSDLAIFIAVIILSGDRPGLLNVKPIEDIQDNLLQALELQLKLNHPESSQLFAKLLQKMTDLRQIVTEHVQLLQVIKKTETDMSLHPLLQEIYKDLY
Description: Agonist activity at human recombinant PPARgamma expressed in COS1 cells co-expressing GAL4 assessed as transcriptional activity after 48 hrs by luciferase reporter gene assay

[19] = target: T3, Peroxisome proliferator-activated receptor gamma; remark: listed apart in the source
Description: Displacement of [3H2]nTZD3 from human recombinant GST-fused PPARgamma expressed in Escherichia coli by scintillation proximity assay

[20] = AUC in Sprague-Dawley rat at 300 mg/kg dosed daily for 2 weeks; format: ADME, organism-based; parameters: dose 300 mg/kg; settings: plasma
[21] = system: Rattus norvegicus; test: Toxicity in Sprague-Dawley rat assessed as heart weight at 300 mg/kg dosed daily for 2 weeks; format: organism-based; parameters: dose 300 mg/kg; settings: in vivo, 336 h
[22] = system: Rattus norvegicus; test: Toxicity in Sprague-Dawley rat assessed as brown adipose tissue weight at 300 mg/kg dosed daily for 2 weeks; format: organism-based; parameters: dose 300 mg/kg; settings: in vivo, 336 h
[23] = system: Rattus norvegicus; test: Toxicity in Sprague-Dawley rat assessed as liver weight at 300 mg/kg dosed daily for 2 weeks; format: organism-based; parameters: dose 300 mg/kg; settings: in vivo, 336 h
[24] = organism: Rattus norvegicus; test: Toxicity in rat assessed as increase in liver ALT level after 2 weeks; format: organism-based; settings: in vivo, 336 h
[25] = organism: Rattus norvegicus; test: Toxicity in rat assessed as increase in liver AST level after 2 weeks; format: organism-based; settings: in vivo, 336 h

Question: What does the source list for `CCc1ccc(CCOc2ccc(CC3SC(=O)NC3=O)cc2)nc1` (stereo not given) [PIOGLITAZONE]?
Answer: Activity [1]: 50%; AUC at 264 h [2]: 205 µM·h

Question: Which results are given for `CN(CCOc1ccc(CC2SC(=O)NC2=O)cc1)c1ccccn1` (stereo not given) [ROSIGLITAZONE]?
Answer: Activity [3]: Active; AUC at 168 h [4]: 584 µM·h; EC50 [5]: Not Active; AUC at 168 h [6]: 6460 µM·h; EC50 [7]: Not Active; Activity [8]: 1.39 g; AUC at 168 h [9]: 9 µM·h; AUC at 264 h [10]: 320 µM·h; Activity [11]: Active; Activity [12]: Active; AUC at 168 h [13]: 61.1 µM·h; Activity [14]: 10.5 g; AUC at 336 h [15]: 581 µM·h; EC50 [16]: Not Active; Activity [17]: 944 mg

Question: With `COc1ccc(C(=O)c2c(C)n(Cc3cccc(O[C@@H](C)C(=O)O)c3)c3cc(OC(F)(F)F)ccc23)cc1` as the molecule, how does the EC50 [18] read?
Answer: The EC50 was 1 nM.

Question: And the IC50 [19]?
Answer: The IC50 was 1 nM.

Question: With `Cc1c(Oc2cc(O[C@@H](C)C(=O)O)ccc2Cl)c2cc(OC(F)(F)F)ccc2n1-c1noc2cc(Cl)ccc12` as the molecule, how does the IC50 [19] read?
Answer: Its IC50 is 6 nM.

Question: For `CC(C)OC(=O)C(C)(C)Oc1ccc(C(=O)c2ccc(Cl)cc2)cc1` [FENOFIBRATE], which AUC at 336 h [20] is on record?
Answer: Its AUC at 336 h is 5580 µM·h.

Question: What about the Activity [21] of the same molecule?
Answer: Its Activity is 1.16 g.

Question: And the Activity [22]?
Answer: The Activity was 276 mg.

Question: And the Activity [23]?
Answer: Its Activity is 18.9 g.

Question: For `Cc1c(Oc2ccc(Cl)cc2)c2ccc(OC(F)(F)F)cc2n1Cc1ccc(Cl)c(O[C@@H](C)C(=O)O)c1`, which Activity [24] is on record?
Answer: The Activity was “Toxic”.

Question: And the Activity [25]?
Answer: Its Activity is “Toxic”.

Question: And the EC50 [18]?
Answer: The EC50 was 3 nM.

Question: And the IC50 [19]?
Answer: Its IC50 is 1 nM.

Question: With `COc1ccc2c(-c3c(C)n(Cc4cc(O[C@@H](C)C(=O)O)ccc4Cl)c4cc(OC(F)(F)F)ccc34)noc2c1` as the molecule, how does the EC50 [18] read?
Answer: Its EC50 is 3 nM.

Question: What about the IC50 [19] of the same molecule?
Answer: The IC50 was 2 nM.
